“And” between values parts separate entries of the source, which are not always exact repeats. Equal values may be shown once.
Key:
[1] = system: edema produced by injection of adriamycin under the arch of the hind paw of the rat; assay: adriamycin test: paw edema in the Wistar rat (anti-free radical activity); assay type: in vivo; set-up: Paw volume, group mean: unit not given beside the values; conditions: for Paw volume, individual animals / Paw volume, group mean / Percentage paw edema, individual animals / Percentage paw edema, group mean: 100 mg/kg IP daily; for Paw volume, group mean / Percentage paw edema, group mean: 10 rats; for Percentage of edema inhibition (protection): vs olive oil control, Diosmine 100 mg/kg IP, Example 4 1 ml/kg IP
Procedure: The adriamycin test is a specific test used to show evidence of the anti-free radical activity of a test substance. This test is described in G. Jadot, Cedema from adriamycin in the Wistar rat. SuperOxide Dismutases, p 73-77, Masson Ed., Paris, 1988.
One hour following injection of Adriamycin, a temporary inflammatory response lasting 12 hours can be observed. This first phase corresponds to the release of histamine, serotonine and the accumulation of polynuclear neutrophiles. A second inflammatory phase commences on the third day following administration and continues for 5 days. During this inflammatory phase, vascular hyperpermeability […] endothelial cell membrane alteration produced by free radical oxidative damage. Steroidal and non-steroidal anti-inflammatory drugs are not effective during this second inflammatory phase.
Research into an anti-free radical activity in the rat by intra-peritoneal administration consists of measuring the reduction in edema produced by injection of adriamycin under the arch of the hind paw of the rat.
Male Wistar rats were used for these tests, after a quarantine period of 15 days.
(Edema was induced by subcutaneous injection of a 0.2 ml solution of adriamycin (2.5 mg/ml) in the arch of the right hind paw of the rat (Siegel's method modified by Jadot (1988)).
The compounds tested were administered 2 hours before the first measurements on the first day, and 1 hour before the measurements on the following days, until the 8th day.
The measurement of edema volume was determined by plethysmography and was performed immediately before injection of adriamycin on the first day (base measurement), and then every day at the same time.
The treatment was maintained for the entire duration of the study. The control group received the dosing vehicle only.
Following the establishment of groups of 10 animals, daily intra-peritoneal administration was carried out according to the following scheme:
Negative control: animals administered olive oil (1 ml/kg).
Positive control: animals administered 100 mg/kg de diosmine (1 ml/kg).
Example 4: animals administered example 4 (1 mil/kg)
Paw edema, expressed as a percentage, is calculated for each animal at each time point:
The percentage reduction in paw oedema at each time point and for each group of animals are calculated as follows: […]
Anti-free radical activity is shown by a significant reduction in paw volume in the treated group compared to the control group.

[2] = activity of the sterol constituent (test not specified); conditions: pure sterol in place of sitosterol
[3] = system: edema produced by injection of adriamycin under the arch of the hind paw of the rat; conditions: cf JL Jadot; cited from earlier work
[4] = iv-injected, rat; cited from earlier work

COc1ccc(-c2cc(=O)c3c(O)cc(O[C@@H]4O[C@H](CO[C@@H]5O[C@@H](C)[C@H](O)[C@@H](O)[C@H]5O)[C@@H](O)[C@H](O)[C@H]4O)cc3o2)cc1O [Diosmine]
Paw volume, individual animals ([1]; D1 (base), before adriamycin, 100 mg/kg): 116 and 108 and 102 (2×) and 105 and 120 and 113 and 107 and 103 and 91
Paw volume, group mean ([1]; D1 (base), before adriamycin): 106.70
Paw volume in comparison to the negative control ([1]; D2-D7, highest significance for Example 4 at D3 and D4 (p<0.001), disappears at D8): statistically significant difference
Paw volume, individual animals ([1]; D2): 129 and 152 and 112 (2×) and 107 and 128 and 135 and 118 and 110 and 105
Percentage paw edema, individual animals ([1]; D2): 11.21% and 40.74% and 9.80% (2×) and 1.90% and 6.67% and 19.47% and 10.28% and 6.80% and 15.38%
Paw volume, group mean ([1]; D2): 120.80
Percentage paw edema, group mean ([1]; D2): 13.21%
Percentage of paw edema, change versus control ([1]; D2 to D5, most significant at D3 for Example 4 (p<0.001)): significant decrease
Paw volume, individual animals ([1]; D3): 162 and 181 and 142 and 126 and 158 and 160 (2×) and 138 and 134 and 161
Percentage paw edema, individual animals ([1]; D3): 39.66% and 67.59% and 39.22% and 20.00% and 31.67% and 41.59% and 49.53% and 35.29% and 30.10% and 76.92%
Paw volume, group mean ([1]; D3): 152.20
Percentage paw edema, group mean ([1]; D3): 43.16%
Percentage of edema inhibition (protection) ([1]; D3): 44.15%
Paw volume, individual animals ([1]; D4): 152 (2×) and 121 and 180 and 143 and 172 and 158 and 142 and 223 and 187
Percentage paw edema, individual animals ([1]; D4): 31.03% and 12.04% and 76.47% and 36.19% and 43.33% and 39.82% and 32.71% and 118.63% and 81.55% and 67.03%
Paw volume, group mean ([1]; D4): 163.00
Percentage paw edema, group mean ([1]; D4): 53.88%
Percentage of edema inhibition (protection) ([1]; D4): 36.98%
Paw volume, individual animals ([1]; D5): 195 and 200 and 152 and 172 and 188 and 175 and 186 and 165 and 173 and 170
Percentage paw edema, individual animals ([1]; D5): 68.10% and 85.19% and 49.02% and 63.81% and 56.67% and 54.87% and 73.83% and 61.76% and 67.96% and 86.81%
Paw volume, group mean ([1]; D5): 177.6
Percentage paw edema, group mean ([1]; D5): 66.80%
Percentage of edema inhibition (protection) ([1]; D5): 21.77%
Paw volume, individual animals ([1]; D6): 193 and 194 and 153 and 179 and 177 and 172 and 199 and 167 and 183 and 158
Percentage paw edema, individual animals ([1]; D6): 66.38% and 79.63% and 50.00% and 70.48% and 47.50% and 52.21% and 85.98% and 63.73% and 77.67% and 73.63%
Paw volume, group mean ([1]; D6): 177.50
Percentage paw edema, group mean ([1]; D6): 66.72%
Percentage of edema inhibition (protection) ([1]; D6): 12.03%
Paw volume, individual animals ([1]; D7): 195 and 176 and 148 and 174 and 164 (2×) and 166 and 172 and 173 and 150
Percentage paw edema, individual animals ([1]; D7): 68.10% and 62.96% and 45.10% and 65.71% and 36.67% and 46.90% and 60.75% and 60.78% and 67.96% and 64.84%
Paw volume, group mean ([1]; D7): 168.20
Percentage paw edema, group mean ([1]; D7): 57.98%
Percentage of edema inhibition (protection) ([1]; D7): 14.05%
Paw volume, individual animals ([1]; D8): 180 and 173 and 145 and 156 and 165 and 164 (2×) and 175 and 159 and 154
Percentage paw edema, individual animals ([1]; D8): 55.17% and 60.19% and 42.16% and 48.57% and 37.50% and 45.13% and 63.55% and 60.78% and 54.37% and 69.23%
Paw volume, group mean ([1]; D8): 163.50
Percentage paw edema, group mean ([1]; D8): 53.67%
Percentage of edema inhibition (protection) ([1]; D8): 0%
Free radical protection activity (conclusion) ([1]; edema progression compared to the control group): confirmed its activity

CC(C)[C@H](C)CC[C@@H](C)[C@H]1CC[C@H]2[C@@H]3CC=C4C[C@@H](O)CC[C@]4(C)[C@H]3CC[C@]12C [campesterol]
activity of pure sterol [2]: no activity

CC[C@H](CC[C@@H](C)[C@H]1CC[C@H]2[C@@H]3CC[C@H]4C[C@@H](O)CC[C@]4(C)[C@H]3CC[C@]12C)C(C)C [sitostanol]
activity of pure sterol [2]: no activity

bovine SOD: bovine superoxide dismutase enzyme
Protection against edema from free radical damage [3]: possesses the same characteristics as Diosmine
circulation half life [4]: 7 min

Reference: patent US20090247492A1, “MANGANESE BASED ORGANOMETALLIC COMPLEXES, PHARMACEUTICAL COMPOSITIONS AND DIETETIC PRODUCTS” (MEDESIS PHARMA S.A.,, priority 2003, published 2009)
